The values below come from US9969771B2, “Tetrapeptide having effect of inhibiting VEGF-induced angiogenesis and use thereof” (AVIXGEN INC., priority 2015, dated 2018).

Each structure is given as a SMILES string. “Also recorded” adds a separate entry of the source. Where a SMILES comes first, the peptide text is derived from it.

For assay [1], the system named is B16F1 mouse melanoma cells. The experiment in a line: Mouse melanoma (B16F1) animal model. Type of assay: in vivo, C57BL/6J mouse. The conditions noted are these: 1 mg/kg per day peritoneally. Here is the method:
100 μl each of 2×10^6 B16F1 mouse melanoma cells and 1×10^7 HCT116 human colorectal tumor cells were subcutaneously injected into the left side of a C57BL/6J mouse and a nude mouse. After a tumor volume reached at least 50 to 70 mm3 (taking about 7 days), saline or RLYE (SEQ ID NO: 2) (0.5 or 1.0 mg/kg) was peritoneally injected daily into the mice. A tumor size was two-dimensionally measured with calipers. A tumor volume (mm3) was calculated by a formula of […]. Following homogenization of tumor tissue with PBS and centrifugation (at 12,000×g for 5 min), a hemoglobin-containing supernatant was extracted to be used in analysis with Drabkin's reagent (Sigma). A hemoglobin level was measured by a cyanmethemoglobin method, and the amount of hemoglobin per gram of the tumor was calculated.

The subject of assay [2] is chick chorioallantoic membrane (CAM). The experiment in a line: Chick chorioallantoic membrane (CAM) analysis. Type of assay: in vivo. The conditions noted are these: RLYE 0.75 nM, VEGF 50 ng/ml. Here is the method: For a chick chorioallantoic membrane (CAM) analysis, fertilized eggs were incubated for 3 days, and a window was made in the same manner as used in the previous research (18). The window (with a diameter of about 3 cm) was made by removing a shell and an inner layer of the shell, and the exposed part was sealed with cellophane tape. The eggs were stood upright at 37° C. in an incubator (with a humidity of 55 to 60%) and were incubated for 3 days. A Thermanox disc containing 10 μl of a salt-free solution containing RLYE (SEQ ID NO: 2) (0.75 nM) alone or in combination with VEGF (50 ng/ml) was gently placed on a CAM that had been incubated for 10 days. After 72-hour incubation, blood vessels formed above were stained by injecting 1 ml of a 10% intralipose (fat emulsion) solution right under the CAM. The stained blood vessels were photographed using a Nikon digital camera, and the number of blood vessels newly formed around the disc was counted.

Assay [3] concerns NO production in HUVECs. The experiment in a line: NO production in HUVECs (DAF-FM diacetate). Format: cell-based, human. Conditions: peptide 0.15 nM, VEGF 10 ng/ml. The method, then: An NO amount produced in HUVECs was evaluated with DAF-FM diacetate. HUVECs were reacted with peptides (0.15 nM) and VEGF (10 ng/ml) for 4 hours, and incubated with DAF-FM diacetate (5 μM) in a CO2 constant temperature incubator, and the amount of NO produced in the cells was measured under a confocal microscope.

Regarding `CC(C)C[C@H](NC(=O)[C@@H](N)CCCNC(=N)N)C(=O)N[C@@H](Cc1ccc(O)cc1)C(=O)N[C@@H](CCC(=O)O)C(=O)O` [RLYE] (H-RLYE-OH; N-terminus and C-terminus assumed), in assay [1], the tumor growth result is given as “significantly decreased”, the tumor size result was “significantly decreased” and the tumor weight result was “significantly decreased”. Moreover, the “VEGF-A-induced blood vessel density in CAM” value in assay [2] is “considerable reduction”. Further, the “inhibition of VEGF-induced NO production” value in assay [3] is recorded as “effectively blocked; also recorded: effectively inhibited; also recorded: higher inhibitory effect than the control KLYD”.
